From patent US8637038B2, “Methods for inhibiting allograft rejection” (Rigel Pharmaceuticals, Inc., priority 2011, dated 2014)
Several values for one entry are separate records, joined by “and”; a condition that tells them apart may be missing. Identical values can stand only once. Like-named read-outs stand apart in the source and are kept apart here.

Experiments:
[1] = system: Syk, Lck, ZAP-70, VEGFR, INSR, EGFR and serine threonine kinases; experiment: Panel of cell-based assays against non-JAK kinase targets
Procedure: The erythropoietin (EPO)-dependent survival of cultured human erythroid progenitor cells (CHEPs) was determined using CellTiter-Glo® Luminescent Cell Viability Assay (Promega). Human primary T cell activation was assessed by measuring IL-2 production by ELISA (R&D Systems, Minneapolis, Minn., USA) following plate-bound anti-CD3 and anti-CD28 stimulation (Anti-Human CD3; BD Biosciences; Anti-Human CD28; Immunotech; Prague, Czech Republic). The enzymatic activity of tryptase released by human cultured mast cells (CHMCs) upon stimulation with IgE was quantified by cleavage of the synthetic fluorescent peptide substrate Z-Ala-Lys-Arg-7-amino-4-methylcoumarin (MP Biomedicals, Solon, Ohio, USA) in tryptase buffer. B-cell receptor-dependent Erk phosphorylation was measured in Ramos cells by intracellular FACS (anti-pT202/pY204-ERK1/2-AlexaFluor488; BD Biosciences). […]
Growth factor-dependent protein phosphorylation was detected in HeLa cells by staining permeabilized cells with phospho-specific antibodies and quantified by chemiluminescence (Luminator, Wallac Multilabel Counter; Perkin Elmer). […] Human umbilical vein endothelial cells (HUVECs) were stimulated with VEGF and VEGFR2 phosphorylation was assessed by ELISA (100 ng/ml VEGF165, R&D Systems; Rabbit anti-phospho-VEGFR2 mAb, Cell Signaling Technology). […]

Syk = experiment: IgE CHMC tryptase release; type: cell-based; details: Homo sapiens, read-out: IgE CHMC tryptase EC50
Procedure: The erythropoietin (EPO)-dependent survival of cultured human erythroid progenitor cells (CHEPs) was determined using CellTiter-Glo® Luminescent Cell Viability Assay (Promega). Human primary T cell activation was assessed by measuring IL-2 production by ELISA (R&D Systems, Minneapolis, Minn., USA) following plate-bound anti-CD3 and anti-CD28 stimulation (Anti-Human CD3; BD Biosciences; Anti-Human CD28; Immunotech; Prague, Czech Republic). The enzymatic activity of tryptase released by human cultured mast cells (CHMCs) upon stimulation with IgE was quantified by cleavage of the synthetic fluorescent peptide substrate Z-Ala-Lys-Arg-7-amino-4-methylcoumarin (MP Biomedicals, Solon, Ohio, USA) in tryptase buffer. B-cell receptor-dependent Erk phosphorylation was measured in Ramos cells by intracellular FACS (anti-pT202/pY204-ERK1/2-AlexaFluor488; BD Biosciences). Cell proliferation assays were performed using A549 epithelial cells and H1299 lung carcinoma cells using nuclear staining to measure cell numbers (4′6-diamidino-2-phenylindole, dihydrochloride (DAPI; Invitrogen, Darmstadt, Germany)).

[2] = system: BN-to-Lew heterotopic heart transplantations; experiment: Graft survival study after 10-day treatment, with combination index; type: in vivo, rat; details: no medication 7±0 days
Excerpt: Male Brown Norway (BN) and Lewis (Lew) rats weighing 350 g were purchased from Harlan (Indianapolis, Ind.) and were housed under conventional conditions. All animals were fed standard rat chow and water ad libitum and received humane care in compliance with the Principles of Laboratory Animal Care formulated by the National Society for Medical Research and the Guide for the care and Use of Laboratory Animals published by the National Institutes of Health (National Institutes of Health publication No. 85-23, revised 1985). Allogeneic (BN-to-Lew) and syngeneic (Lew-to-Lew) heterotopic heart transplantations were performed as described previously (Ono et al., J. Thorac. Cardiovasc. Surg. 57:225-229, 1969). In brief, rats were anaesthetized using 2% isoflurane. The donor received an intravenous bolus of 500 I.U. heparin. Cardiac arrest was achieved using 20 ml Bretschneider solution (Custodiol, Dr. F. Koehler Chemie, Bensheim, Germany). […] Heart-beating score was assessed directly after transplantation for each animal from score 0 (no palpable contraction) to 4 (strong and regular contraction). Only animals with beating scores of 4 were included into the study.
Compound I and Compound III were provided by Rigel (South San Francisco, Calif.) and Tacrolimus was provided by Astellas (Munich, Germany). All drugs were administrated orally each in two different concentrations: Compound I LD (15 mg/kg BID; n=6) and HD (60 mg/kg BID; n=6); Compound III LD (5 mg/kg BID; n=6) and HD (20 mg/kg BID; n=6); Tac LD (1 mg/kg QD; n=6) and HD (4 mg/kg QD; n=6). Administration of all drugs was performed every day at the same time points. Tacrolimus was applied only once a day (QD) every 24 hours. During administration of Compound I (BID) and Compound III (BID) a 12 hour pause was kept in between each drug application.
BN-to-Lew heterotopic heart transplantations were performed. Recipient animals were treated for 10 days according to Table 1 (10 day survival study group) and graft survival was monitored by daily palpation of the beating donor heart through the abdominal wall. Scoring was assessed according to heart-beating score of 0 to 4. The time of rejection was defined as the last day of palpable cardiac contractions and graft rejection was confirmed by laparotomy.
The median-effect principle of Chou (in Synergism and Antagonism in Chemotherapy, Chou and Rideout, eds, pp. 61-102, Academic Press, 1991) is based on the premise that the effect of each agent is related to its dose and, therefore, can be calculated using the following equation: (fa/fu)=(D/Dm)m, where fa and fu represent the fractions of the system that are affected (% inhibition or rather days of survival beyond controls) and unaffected (1−fa), respectively, by the drug at dose D. Full protection (fa=1) is defined as at least a 28-day survival of allografts. Dm is the dose required for 50% inhibition (ED50), the median effect (m) is a coefficient that describes the sigmoidicy of the dose-effect curve. The interaction between two drugs is assessed by the combination index (CI) equation for the doses to achieve x % inhibition:
[formula] for the mutually nonexclusive case, where each drug has a different mode of action. A computer software program was used to determine the dose-effect parameters (Dm, m, and r), and the CI values (CalcuSyn, Biosoft, Cambridge, United Kingdom).
Graft survival was monitored by daily palpation of the beating donor heart through the abdominal wall and treatment of animals was stopped after 10 days.

[3] = HD (Compound I 60 mg/kg BID, Compound III 20 mg/kg BID, Tac 4 mg/kg QD) for 10 days
[4] = LD (Compound I 15 mg/kg BID, Compound III 5 mg/kg BID, Tac 1 mg/kg QD) for 10 days

SMILES	inhibition of other (non-JAK) kinase targets in cells [1]	EC50 (Syk; upstream kinase Syk)	graft survival, mean [2, 3]	graft survival, mean [2, 4]	EC50 (Syk)
COc1cc(Nc2ncc(C)c(Nc3ccc4oc(=O)[nH]c4c3)n2)cc(C)c1F [Compound I, 5-(2-(4-fluoro-3-methoxy-5-methylphenylamino)-5-methylpyrimidin-4-ylamino)benzo[d]oxazol-2(3H)-one]	very limited inhibition	457 ± 263 nM	22 ± 5 days and 22 ± 6 days	15 ± 3 days	
COc1cc(Nc2ncc(C)c(Nc3ccc4oc(=O)[nH]c4c3)n2)cc(C)c1C [Compound III, 5-(2-(3-methoxy-4,5-dimethylphenylamino)-5-methylpyrimidin-4-ylamino)benzol[d]oxazol-2-(3H)-one]	very limited inhibition		20 ± 4 days and 20 ± 2 days	13 ± 2 days	380 ± 150 nM
